In US20230329236A1, “HERBICIDAL PYRIMIDINE DERIVATIVES” (MoA Technology Limited, priority 2020, published 2023):

Columns and labels:
Conditions in all cases: 336 h, Table 3, post-emergence, 14±1 days post application
[1] = system: Amaranthus retroflexus (AMARE); assay: Post-emergence glasshouse test, visual injury, AMARE; assay type: in vivo
Outline: (§1)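 Post-emerg. spray, BBCH 12-14; acetone/water 50:50 + 0.5% Tween 20; rate as g a.i./ha. Glasshouse, sandy loam soil. Read: % visual injury vs untreated, 14±1 d after application.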

[2] = system: Lolium multiflorum (LOLMU); assay: Post-emergence glasshouse test, visual injury, LOLMU; assay type: in vivo
Outline: as §1

Veronica persica (VERPE) = assay: Post-emergence glasshouse test, visual injury, VERPE; assay type: in vivo
Outline: as §1

[3] = system: Echinochloa crus-gaffi (ECHCG); assay: Post-emergence glasshouse test, visual injury, ECHCG; assay type: in vivo, Echinochloa crus-galli
Outline: as §1

SMILES | pest or weed control at 125 g/ha [1] [%] | pest or weed control at 250 g/ha ([1]; 250 g/ha) [%] | pest or weed control at 125 g/ha [2] [%] | pest or weed control at 250 g/ha ([2]; 250 g/ha) [%] | pest or weed control at 125 g/ha (Veronica persica (VERPE)) [%] | pest or weed control at 250 g/ha (Veronica persica (VERPE); 250 g/ha) [%] | pest or weed control at 125 g/ha [3] [%] | pest or weed control at 250 g/ha ([3]; 250 g/ha) [%] | pest or weed control at 500 g/ha [1] [%] | pest or weed control at 500 g/ha [2] [%] | pest or weed control at 500 g/ha (Veronica persica (VERPE)) [%] | pest or weed control at 500 g/ha [3] [%]
Cc1cc(-c2cnc(NC3CC3)nc2C2CC2)on1 [Compound 84] | 60 | 80 | 50 | 70 | 60 | 100 | 90 | 100 | – | – | – | –
Cc1cc(-c2cnc(NC(C)(C)C)nc2C(C)C)on1 [Compound 5] | 100 | – | 60 | – | 100 | – | 70 | – | – | – | – | –
Cc1cc(-c2cnc(NCc3ccccc3F)nc2C(C)C)on1 [Compound 55] | – | – | – | – | – | – | – | – | 100 | 40 | 99 | 70
Cc1cc(-c2cnc(NCc3cccnc3)nc2C(C)(C)C)on1 [Compound 75] | – | – | – | – | – | – | – | – | 98 | 70 | 90 | 40
